Data published in US10590140B2, “Tetrahydropyrimidodiazepine and dihydropyridodiazepine compounds for treating pain and pain related conditions” (ESTEVE PHARMACEUTICALS, S.A., priority 2016, dated 2020).

Target: human α2δ-1 subunit of Cav2.2 calcium channel (Homo sapiens (Human), UniProt P54289)
Assay: Binding assay to human α2δ-1 subunit of Cav2.2 calcium channel ([3H]-Gabapentin)
Settings: binding to α2δ-1, [3H]-Gabapentin; read-out: Ki (nM) α2δ-1
Procedure: Binding Assay to Human α2δ-1 Subunit of Cav2.2 Calcium Channel.
NSB (non specific binding) was measured by adding 10 μM pregabalin. After 60 min incubation at 27° C., binding reaction was terminated by filtering through Multiscreen GF/C (Millipore) presoaked in 0.5% polyethyleneimine in Vacuum Manifold Station, followed by 3 washes with ice-cold filtration buffer containing 50 mM Tris-HCl, pH 7.4.
Filter plates were dried at 60° C. for 1 hour and 30 μl of scintillation cocktail were added to each well before radioactivity reading.

human α2δ-1 subunit of Cav2.2 calcium channel, sequence (P54289 25-1103): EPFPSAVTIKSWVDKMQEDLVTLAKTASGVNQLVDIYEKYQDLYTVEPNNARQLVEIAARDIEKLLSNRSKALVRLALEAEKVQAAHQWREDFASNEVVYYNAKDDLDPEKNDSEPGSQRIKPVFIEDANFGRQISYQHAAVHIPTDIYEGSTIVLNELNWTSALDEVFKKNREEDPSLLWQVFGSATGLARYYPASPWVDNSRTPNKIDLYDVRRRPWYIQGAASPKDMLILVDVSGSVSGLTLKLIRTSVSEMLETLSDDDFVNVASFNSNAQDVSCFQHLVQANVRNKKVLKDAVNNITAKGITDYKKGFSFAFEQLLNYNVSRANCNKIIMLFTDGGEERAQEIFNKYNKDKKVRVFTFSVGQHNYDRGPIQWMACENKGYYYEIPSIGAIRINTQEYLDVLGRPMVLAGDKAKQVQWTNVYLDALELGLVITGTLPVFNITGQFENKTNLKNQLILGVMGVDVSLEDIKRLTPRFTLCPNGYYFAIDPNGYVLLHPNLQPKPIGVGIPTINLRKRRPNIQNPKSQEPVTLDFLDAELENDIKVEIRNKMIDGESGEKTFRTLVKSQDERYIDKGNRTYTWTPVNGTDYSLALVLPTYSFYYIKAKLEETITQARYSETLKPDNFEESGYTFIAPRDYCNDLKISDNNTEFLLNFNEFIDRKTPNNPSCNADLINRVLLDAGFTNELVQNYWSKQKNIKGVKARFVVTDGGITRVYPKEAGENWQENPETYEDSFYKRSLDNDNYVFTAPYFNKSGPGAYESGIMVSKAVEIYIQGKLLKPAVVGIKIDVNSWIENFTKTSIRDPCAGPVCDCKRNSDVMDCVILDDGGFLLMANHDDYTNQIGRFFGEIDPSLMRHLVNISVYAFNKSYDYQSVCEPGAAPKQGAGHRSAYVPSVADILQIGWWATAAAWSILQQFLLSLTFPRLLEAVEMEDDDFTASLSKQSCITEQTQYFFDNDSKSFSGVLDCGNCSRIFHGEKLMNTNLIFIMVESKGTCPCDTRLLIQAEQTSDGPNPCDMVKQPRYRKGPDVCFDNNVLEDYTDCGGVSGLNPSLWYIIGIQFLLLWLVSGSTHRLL

Row | SMILES | Ki
1 | CSc1ncc2c(n1)N(C)CCN(c1cccc(OC3CCN(C(=O)OC(C)(C)C)C3)c1)C2=O (centres unmarked) [Example 27, tert-butyl 3-(3-(9-methyl-2-(methylthio)-5-oxo-5,7,8,9-tetrahydro-6H-pyrimido[4,5-e][1,4]diazepin-6-yl)phenoxy) pyrrolidine-1-carboxylate] | > 3000 nM
2 | CSc1ncc2c(n1)N(C)CCN(c1cccc(COC3(c4ccccc4)CCN(C(=O)OC(C)(C)C)CC3)c1)C2=O [Example 28, tert-butyl 4-((3-(9-methyl-2-(methylthio)-5-oxo-5,7,8,9-tetrahydro-6H-pyrimido[4,5-e][1,4]diazepin-6-yl)benzyl)oxy)-4-phenylpiperidine-1-carboxylate] | > 3000 nM
3 | CSc1ncc2c(n1)N(C)CCN(c1cccc(-c3nnc(C)o3)c1)C2=O [Example 29, 9-methyl-6-(3-(5-methyl-1,3,4-oxadiazol-2-yl)phenyl)-2-(methylthio)-6,7,8,9-tetrahydro-5H-pyrimido[4,5-e][1,4]diazepin-5-one] | > 3000 nM
4 | CCN1CCN(c2cccc(-c3nnc(C)o3)c2)C(=O)c2cnc(SC)nc21 [Example 30, 9-ethyl-6-(3-(5-methyl-1,3,4-oxadiazol-2-yl)phenyl)-2-(methylthio)-6,7,8,9-tetrahydro-5H-pyrimido[4,5-e][1,4]diazepin-5-one] | > 3000 nM
5 | CSc1ncc2c(n1)N(C)CCN(c1cccc(-c3noc(C)n3)c1)C2=O [Example 31, 9-methyl-6-(3-(5-methyl-1,2,4-oxadiazol-3-yl)phenyl)-2-(methylthio)-6,7,8,9-tetrahydro-5H-pyrimido[4,5-e][1,4]diazepin-5-one] | > 3000 nM
6 | COc1cccc(N2CCN(C)c3nc(SC)ncc3C2=O)c1 [Example 32, 6-(3-methoxyphenyl)-9-methyl-2-(methylthio)-6,7,8,9-tetrahydro-5H-pyrimido[4,5-e][1,4]diazepin-5-one] | > 3000 nM
7 | CSc1ncc2c(n1)N(C)CCN(c1cccc(C#N)c1)C2=O [Example 33, 3-(9-methyl-2-(methylthio)-5-oxo-5,7,8,9-tetrahydro-6H-pyrimido[4,5-e][1,4]diazepin-6-yl)benzonitrile] | > 3000 nM
8 | CSc1ncc2c(n1)N(C)CCN(c1cccc(O[Si](C)(C)C(C)(C)C)c1)C2=O [Example 34, 6-(3-((tert-butyldimethyl-silyl)oxy)phenyl)-9-methyl-2-(methylthio)-6,7,8,9-tetrahydro-5H-pyrimido[4,5-e][1,4]diazepin-5-one] | > 3000 nM
9 | CSc1ncc2c(n1)N(C)CCN(c1cccc(Br)c1)C2=O [Example 35, 6-(3-bromophenyl)-9-methyl-2-(methylthio)-6,7,8,9-tetrahydro-5H-pyrimido[4,5-e][1,4]diazepin-5-one] | > 3000 nM
10 | CSc1ncc2c(n1)N(C)CCN(c1cccc(CCO)c1)C2=O [Example 36, 6-(3-(2-hydroxyethyl)phenyl)-9-methyl-2-(methylthio)-6,7,8,9-tetrahydro-5H-pyrimido[4,5-e][1,4]diazepin-5-one] | > 3000 nM
11 | COc1ccc(N2CCN(C)c3nc(SC)ncc3C2=O)cc1 [Example 37, 6-(4-methoxyphenyl)-9-methyl-2-(methylthio)-6,7,8,9-tetrahydro-5H-pyrimido[4,5-e][1,4]diazepin-5-one] | > 3000 nM
12 | CSc1ncc2c(n1)N(C)CCN(c1ccc(O[Si](C)(C)C(C)(C)C)cc1)C2=O [Example 38, 6-(4-((tert-butyldimethyl-silyl)oxy)phenyl)-9-methyl-2-(methylthio)-6,7,8,9-tetrahydro-5H-pyrimido[4,5-e][1,4]diazepin-5-one] | > 3000 nM
13 | CSc1ncc2c(n1)N(C)CCN(c1cccc(-n3cc(CN(C)C(=O)OC(C)(C)C)nn3)c1)C2=O [Example 39, tert-butyl methyl((1-(3-(9-methyl-2-(methylthio)-5-oxo-5,7,8,9-tetrahydro-6H-pyrimido[4,5-e][1,4]diazepin-6-yl)phenyl)-1H-1,2,3-triazol-4-yl)methyl) carbamate] | > 3000 nM
14 | CSc1ncc2c(n1)N(C)CCN(c1cccc(-n3cc(CNC(=O)OC(C)(C)C)nn3)c1)C2=O [Example 40, tert-butyl ((1-(3-(9-methyl-2-(methylthio)-5-oxo-5,7,8,9-tetrahydro-6H-pyrimido[4,5-e][1,4]diazepin-6-yl)phenyl)-1H-1,2,3-triazol-4-yl)methyl) carbamate] | > 3000 nM
15 | CSc1ncc2c(n1)N(C)CCN(c1cccc(-n3cc(CN(Cc4ccccc4)C(=O)OC(C)(C)C)nn3)c1)C2=O [Example 41, tert-butyl benzyl((1-(3 (9-methyl-2-(methylthio)-5-oxo-5,7,8,9-tetrahydro-6H pyrimido[4,5-e][1,4]diazepin-6-yl)phenyl)-1H-1,2,3-triazol-4-yl)methyl) carbamate] | > 3000 nM
16 | CCOC(OCC)c1cn(-c2cccc(N3CCN(C)c4nc(SC)ncc4C3=O)c2)nn1 [Example 42, 6-(3-(4-(diethoxymethyl)-1H-1,2,3-triazol-1-yl)phenyl)-9-methyl-2-(methylthio)-6,7,8,9-tetrahydro-5H-pyrimido[4,5-e][1,4]diazepin-5-one] | > 3000 nM
17 | CSc1ncc2c(n1)N(C)CCN(c1cccc(-n3cc(CCN(C)C(=O)OC(C)(C)C)nn3)c1)C2=O [Example 43, tert-butyl methyl(2-(1-(3-(9-methyl-2-(methylthio)-5-oxo-5,7,8,9-tetrahydro-6H-pyrimido[4,5-e][1,4]diazepin-6-yl)phenyl)-1H-1,2,3-triazol-4-yl)ethyl) carbamate] | > 3000 nM
18 | CSc1ncc2c(n1)N(C)CCN(c1cccc(Cn3cc(CN(C)C(=O)OC(C)(C)C)nn3)c1)C2=O [Example 44, tert-butyl methyl((1-(3-(9-methyl-2-(methylthio)-5-oxo-5,7,8,9-tetrahydro-6H-pyrimido[4,5-e][1,4]diazepin-6-yl)benzyl)-1H-1,2,3-triazol-4-yl)methyl) carbamate] | > 3000 nM
19 | CSc1ncc2c(n1)N(C)CCN(c1cccc(-n3cc(CN(C)C(=O)OC(C)(C)C)cn3)c1)C2=O [Example 45, tert-butyl methyl((1-(3-(9-methyl-2-(methylthio)-5-oxo-5,7,8,9-tetrahydro-6H-pyrimido[4,5-e][1,4]diazepin-6-yl)phenyl)-1H-pyrazol-4-yl)methyl) carbamate] | > 3000 nM
20 | CSc1ncc2c(n1)N(C)CCN(c1cccc(-n3cnc(CN(C)C(=O)OC(C)(C)C)c3)c1)C2=O [Example 46, tert-butyl methyl((1-(3-(9-methyl-2-(methylthio)-5-oxo-5,7,8,9-tetrahydro-6H-pyrimido[4,5-e][1,4]diazepin-6-yl)phenyl)-1H-imidazol-4-yl)methyl) carbamate] | > 3000 nM
21 | CSc1ncc2c(n1)N(C)CCN(c1ccccc1OC(CCN(C)C(=O)OC(C)(C)C)c1ccccc1)C2=O (centres unmarked) [Example 48, tert-butyl methyl(3-(2-(9-methyl-2-(methylthio)-5-oxo-5,7,8,9-tetrahydro-6H-pyrimido [4,5-e][1,4]diazepin-6-yl)phenoxy)-3-phenylpropyl) carbamate] | > 3000 nM
22 | CSc1ncc2c(n1)N(C)CCN(c1cccc(COC(CCN(C)C(=O)OC(C)(C)C)C(C)C)c1)C2=O (centres unmarked) [Example 49, tert-butyl methyl (4-methyl-3-((3-(9-methyl-2-(methylthio)-5-oxo-5,7,8,9-tetrahydro-6H-pyrimido[4,5-e][1,4]diazepin-6-yl)benzyl)oxy)pentyl) carbamate] | > 3000 nM
23 | CSc1ncc2c(n1)N(C)CCN(c1cccc(COC(C)CCN(C)C(=O)OC(C)(C)C)c1)C2=O (centres unmarked) [Example 50, tert-butyl methyl(3-((3-(9-methyl-2-(methylthio)-5-oxo-5,7,8,9-tetrahydro-6H-pyrimido[4,5-e][1,4]diazepin-6-yl)benzyl)oxy)butyl) carbamate] | > 3000 nM
24 | CSc1ncc2c(n1)N(C)CCN(c1cccc(OC(CCN(C)C(=O)OCC[Si](C)(C)C)c3cccs3)c1)C2=O (centres unmarked) [Example 51, 2-(trimethyl-silyl)ethyl methyl(3-(3-(9-methyl-2-(methylthio)-5-oxo-5,7,8,9-tetrahydro-6H-pyrimido[4,5-e][1,4]diazepin-6-yl)phenoxy)-3-(thiophen-2-yl)propyl) carbamate] | > 3000 nM
25 | CSc1ncc2c(n1)N(C)CCN(c1cccc(OC(CCN(C)C(=O)OC(C)(C)C)c3ccccn3)c1)C2=O (centres unmarked) [Example 52, tert-butyl methyl(3-(3-(9-methyl-2-(methylthio)-5-oxo-5,7,8,9-tetrahydro-6H-pyrimido[4,5-e][1,4]diazepin-6-yl)phenoxy)-3-(pyridin-2-yl)propyl) carbamate] | > 3000 nM
26 | CSc1ncc2c(n1)N(C)CCN(c1cccc(OC(CCN(C)C(=O)OC(C)(C)C)c3cccnc3)c1)C2=O (centres unmarked) [Example 53, tert-butyl methyl(3-(3-(9-methyl-2-(methylthio)-5-oxo-5,7,8,9-tetrahydro-6H-pyrimido[4,5-e][1,4]diazepin-6-yl)phenoxy)-3-(pyridin-3-yl)propyl) carbamate] | > 3000 nM
27 | CCNc1cc2c(cn1)C(=O)N(c1cccc(-c3nnc(C)o3)c1)CCN2C [Example 54, 8-(ethylamino)-1-methyl-4-(3-(5-methyl-1,3,4-oxadiazol-2-yl)phenyl)-1,2,3,4-tetrahydro-5H-pyrido[4,3-e][1,4]diazepin-5-one] | 100 to 500 nM
28 | CCNc1cc2c(cn1)C(=O)N(c1cccc(-c3nnc(C)n3CC)c1)CCN2C [Example 55, 4-(3-(4-ethyl-5-methyl-4H-1,2,4-triazol-3-yl)phenyl)-8-(ethylamino)-1-methyl-1,2,3,4-tetrahydro-5H-pyrido[4,3-e][1,4]diazepin-5-one] | 500 to 3000 nM
29 | CCNc1cc2c(cn1)C(=O)N(c1cccc(OC(CCN(C)C(=O)OCC[Si](C)(C)C)c3cccs3)c1)CCN2C (centres unmarked) [Example 58, 2-(trimethyl-silyl)ethyl (3-(3-(8-(ethylamino)-1-methyl-5-oxo-1,2,3,5-tetrahydro-4H-pyrido[4,3-e] [1,4]diazepin-4-yl)phenoxy)-3-(thiophen-2-yl)propyl)(methyl) carbamate] | > 3000 nM
